From patent US8598132B2, “Glycosylated indolocarbazoles, method for obtaining same and uses thereof” (Universidad de Oviedo, priority 2008, dated 2013)

Columns and labels:
FGFR1 = target: T1, FGFR1 (Homo sapiens, UniProt P11362); assay: LabChip (Caliper) kinase assay, FGFR1; format: biochemical; details: for inhibition at 0.01 µM: compound at 10 nM; for inhibition at 0.01 µM / inhibition at 0.1 µM: read-out: remaining kinase activity (in %) / percentage of inhibition; for inhibition at 0.1 µM: compound at 100 nM; for IC50: ATP at Km, read-out: CI50 (the source's name)
T1 construct: purchased Upstate
T1 sequence (P11362 22-822, species assumed): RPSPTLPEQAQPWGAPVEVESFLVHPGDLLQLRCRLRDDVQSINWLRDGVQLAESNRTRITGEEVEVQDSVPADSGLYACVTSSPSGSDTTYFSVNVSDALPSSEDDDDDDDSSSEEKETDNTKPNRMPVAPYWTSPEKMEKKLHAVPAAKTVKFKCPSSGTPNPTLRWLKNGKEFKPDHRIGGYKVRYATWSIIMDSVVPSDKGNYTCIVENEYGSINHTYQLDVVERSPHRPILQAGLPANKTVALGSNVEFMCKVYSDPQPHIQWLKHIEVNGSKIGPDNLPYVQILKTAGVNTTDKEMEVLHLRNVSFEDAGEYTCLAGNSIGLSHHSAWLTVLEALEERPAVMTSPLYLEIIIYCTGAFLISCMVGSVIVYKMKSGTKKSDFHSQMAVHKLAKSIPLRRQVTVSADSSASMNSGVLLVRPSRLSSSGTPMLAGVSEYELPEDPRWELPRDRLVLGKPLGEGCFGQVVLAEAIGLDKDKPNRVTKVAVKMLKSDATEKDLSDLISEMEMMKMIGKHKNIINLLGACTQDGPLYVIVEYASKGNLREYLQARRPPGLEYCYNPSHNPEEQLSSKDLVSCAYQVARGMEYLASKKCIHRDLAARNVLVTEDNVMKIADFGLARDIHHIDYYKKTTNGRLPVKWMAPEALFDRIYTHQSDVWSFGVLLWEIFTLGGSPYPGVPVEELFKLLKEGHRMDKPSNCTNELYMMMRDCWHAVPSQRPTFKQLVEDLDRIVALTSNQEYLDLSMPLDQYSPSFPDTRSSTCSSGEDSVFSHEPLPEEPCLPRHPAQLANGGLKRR
Experimental: The analysis of kinase activity described here was performed using LabChip (Caliper Life Sciences), specifically the Caliper LC3000 and the EZ Reader II instruments.
The kinase assay used measures the conversion of a fluorescent peptide (substrate) to a phosphorylated product. The reaction mixture, in a microplate well, is introduced by a capillary in a chip where the non-phosphorylated substrate and the phosphorylated product are separated by […]. The intensity of the fluorescent signal over time is related to the reaction progress. The phosphorylated product migrates quicker than the non-phosphorylated substrate and the signals of the two forms of the peptide appear as differentiated peaks. The Caliper determines the peak height and calculates the ratio of product to the peak sum (P/(P+S)). This value is used to compare wells with compounds and wells with controls and thus determine the % of inhibition for the given product.
The followings kinases were used for the enzymatic inhibition studies, between brackets the value of the Michaelis-Menten constant, Km, of the ATP (Adenosine triphosphate) for each kinase, in μM: obtained from Carna Biosciences: MAPKAPK2 (4.6), AurA (3.6), AurB (5), PKCζ (3.8), RSK1 (23.3), PRAK (5), Erk1 (33.4), PKD2 (32.1), CK1d (16.3), CHK1 (33), ABL (61.7), FYN (36), LYNa (17), CHK2 (57.8), MET (79.5), LCK (28.5), SRC (38), GSK3β (7.3), Erk2 (62.1), PKACα (1.7), AKT2 (186.1), INSR (871.8), p38a (396.5), AKT1(48), MSK1 (21.2), PKCβ2 (84.8), ROCK2 (3.3), PIM2 (4.9), AMPK (38.6), KDR (164.8), IRAK4 (196.5), SGK1 (121.8), SYK (33.5); obtained from Invitrogen: CDK2 (57.6), BTK (123), HGK (80); obtained from Upstate: MST2 (36.6), PKGα (16), PAK2 (1.9), IGF1R (320), FGFR1 (171), MARK1 (33), CAMK2δ (22.4), c-TAK1 (66), DYRK1a (18.1), CaMK4 (3.9), FLT3 (350), c-Raf (6.2), P70S6K (95).
The compounds were dissolved in 100% DMSO and were diluted at 25 times the final concentration desired for the assay. In the case of the determination of Cl50, serial dilutions were made to reach eight concentrations and give rise to the inhibition curve. 1 μL of each concentration is transferred, in duplicate to a 384-well microplate. 12 μL of enzymatic buffer is added to each well containing purified kinase (several suppliers as indicated above), 100 mM HEPES, pH 7.5, 1 mM DTT (Calbiochem), 0.002% Brij-35 (Sigma) and also in presence of 10 mM MgCl2 as cofactor, except for INSR and IRAK4 wherein 10 mM MnCl2 is used instead of MgCl2. For the kinases CAMK26 and CAMK4, 1 mM CaCl2 and 6.7 μg/mL of calmodulin are also added. For KDR kinase, 0.05% of the CHAPSO detergent is added. For the c-Raf kinase, 10 mM MnCl2 is added. For PKCβ2 0.02 μg/mL of PS/PMA is added. For PKGα se 10 μM of cGMP (cyclic guanosine monophosphate) is added. The compound and the enzyme are left for 15 minutes preincubation and, then, the following are added to each well: 12 μL of peptide buffer/ATP containing 100 mM HEPES, pH 7.5, 1.5 μM peptide marker with fluorescein (specific for the corresponding kinase), ATP (at concentration KM), and 0.002% Brij-35 to start the reaction. Generally, the reactions are incubated for 1-1.5 h at ambient temperature to obtain an adequate conversion (15-40%) of the peptide to the phosphorylated product. The reactions were ended by the addition of 45 μL of buffer containing 0 mM EDTA. The microplates were read by the LabChip 3000 using a 12-channel LabChip. The P/(P+S) values were obtained as described above and the CI50 curves were generated using XIfit.
Table 9a has the 0150 data obtained in pairs of compound-kinase selected from the compounds of formula (VII), (VIII), (IX), (XVI), (XVII) and (XVIII) after taking inhibition measurements at 100 nM and 10 nM. Those couples that provide >70% of inhibition at 10 nM were consider for measuring its IC50. […]

MDA-MB-231 (breast) = assay: SRB anti-tumour (growth inhibition) assay, MDA-MB-231; format: cell-based; details: Homo sapiens, 48 h exposure, read-out: GI50 (concentration inhibiting 50% of cell growth)
Experimental: (§1) The compounds generated were tested against a series of cell lines from tumours. It quantitatively determined the cell growth and the viability, using a colorimetric assay type, using the reaction with sulforhodamine B (SRB), according to the technique described by Faircloth et al. (Journal of Tissue and Culture Methods 1988, 11, 201-205).
(§2) 96-well microtitre plates are inoculated with cells (5×10^3 cells per well) in aliquots of 195 μl of medium, incubating them during 18 h, in a medium without added compound, to allow the cells to adhere to the surface. Next, the compounds to be tested are added, in samples of 5 μl, at a range of concentrations of 10 to 10^−8 μg/ml, dissolved in DMSO/EtOH (0.2% in PS buffer). After 48 h exposure, the anti-tumour effect is measured using the Sulforhodamine B (SRB) technique: the cells are fixed adding 50 μl of cold […] (50%) (w/v) and it is incubated for 60 min. at 4° C. The plates are washed with deionized water and dried. 100 μl of SRB solution (0.4% w/v in 1% acetic acid) to each well and it is incubated during 10 min. at ambient temperature. The non-bound SRB is eliminated, washing with 1% acetic acid. The plates are air dried and the bound colorant is dissolved with Tris buffer. The optical densities are read in an automatic plate spectrophotometer reader at a wavelength of 490 nm.
(§3) For the compounds of formula (III), (IV), (V), (VI), (VII), (VIII), (IX) and the compounds of formula (XII), (XIII), (XIV), (XV), (XVI) and (XVIII).

A549 (lung) = assay: SRB anti-tumour (growth inhibition) assay, A549; format: cell-based; details: Homo sapiens, 48 h exposure, read-out: GI50 (concentration inhibiting 50% of cell growth)
Experimental: as §1, §2, §3

| Compound | inhibition at 0.01 µM (FGFR1) [%] | inhibition at 0.1 µM (FGFR1) [%] | GI50 (MDA-MB-231 (breast)) [nM] | GI50 (A549 (lung)) [nM] | IC50 (FGFR1) [nM] |
| --- | --- | --- | --- | --- | --- |
| C[C@@H]1O[C@@H](n2c3ccccc3c3c4c(c5c6ccccc6[nH]c5c32)CNC4=O)[C@H](O)[C@H](O)[C@H]1O [formula (XII), N^13-1′-β-L-rhamnosyl-k252c] | 1 | 5 | 1970 | 2840 | – |
| C[C@@H]1O[C@@H](n2c3ccccc3c3c4c(c5c6ccccc6[nH]c5c32)C(=O)NC4=O)C[C@H](O)[C@H]1O [formula (IV), N^13-1′-β-L-olivosylarcyriaflavin] | 3 | 21 | 14100 | 8790 | – |
| C[C@H]1O[C@@H](n2c3ccccc3c3c4c(c5c6ccccc6[nH]c5c32)C(=O)NC4=O)C[C@@H](O)[C@@H]1O [formula (VI), N^13-1′-β-D-olivosylarcyriaflavin] | 1 | 25 | 2430 | 2210 | – |
| C[C@]12O[C@H](C[C@H](O)[C@H]1O)n1c3ccccc3c3c4c(c5c6ccccc6n2c5c31)C(=O)NC4=O [formula (VIII), N^12-5′(S)-N^13-1′-(R)-L-olivosylarcyriaflavin] | – | – | 7500 | 5730 | – |
| C[C@]12O[C@H](C[C@H](O)[C@H]1O)n1c3ccccc3c3c4c(c5c6ccccc6n2c5c31)CNC4=O [formula (XVII), N^12-5′(S)-N^13-1′-(R)-L-olivosyl-k252c] | – | – | 1050 | 1020 | > 10 |
| C[C@@H]1O[C@@H](n2c3ccccc3c3c4c(c5c6ccccc6[nH]c5c32)C(=O)NC4=O)C[C@@H](O)[C@H]1O [formula (V), N^13-1′-β-L-digitoxosylarcyriaflavin] | 7 | 34 | 4190 | 4410 | – |
| C[C@]12O[C@H](C[C@@H](O)[C@H]1O)n1c3ccccc3c3c4c(c5c6ccccc6n2c5c31)CNC4=O [formula (XVIII), N^12-5′(S)-N^13-1′-(R)-L-digitoxosyl-k252c] | – | – | 1840 | 1960 | > 100 |
| C[C@]12O[C@H]([C@H](O)[C@H](O)[C@H]1O)n1c3ccccc3c3c4c(c5c6ccccc6n2c5c31)C(=O)NC4=O [formula (VII), N^12-5′(S)-N^13-1′-(R)-L-rhamnosylarcyriaflavin] | – | – | 1350 | 2040 | 8.9 |
| C[C@@H]1O[C@@H](n2c3ccccc3c3c4c(c5c6ccccc6[nH]c5c32)C(=O)NC4=O)[C@H](O)[C@H](O)[C@H]1O [formula (III), N^13-1′-β-L-rhamnosylarcyriaflavin] | 3 | 4 | 4400 | 4180 | – |
| C[C@@H]1O[C@@H](n2c3ccccc3c3c4c(c5c6ccccc6[nH]c5c32)CNC4=O)C[C@@H](O)[C@H]1O [formula (XIV), N^13-1′-β-L-digitoxosyl-k252c] | 1 | 5 | 2490 | 3400 | – |
| C[C@H]1O[C@@H](n2c3ccccc3c3c4c(c5c6ccccc6[nH]c5c32)CNC4=O)C[C@@H](O)[C@@H]1O [formula (XV), N^13-1′-β-D-olivosyl-k252c] | -2 | 7 | 3170 | 4980 | – |
| C[C@@H]1O[C@@H](n2c3ccccc3c3c4c(c5c6ccccc6[nH]c5c32)CNC4=O)C[C@H](O)[C@H]1O [formula (XIII), N^13-1′-β-L-olivosyl-k252c] | -1 | 7 | 1430 | 1560 | – |
| C[C@]12O[C@H](C[C@@H](O)[C@H]1O)n1c3ccccc3c3c4c(c5c6ccccc6n2c5c31)C(=O)NC4=O [formula (IX), N^12-5′(S)-N^13-1′-(R)-L-digitoxosylarcyriaflavin] | – | – | 8160 | 5510 | > 10 |
| C[C@]12O[C@H]([C@H](O)[C@H](O)[C@H]1O)n1c3ccccc3c3c4c(c5c6ccccc6n2c5c31)CNC4=O [formula (XVI), N^12-5′(S)-N^13-1′-(R)-L-rhamnosyl-k252c] | – | – | 590 | 610 | – |
